# According to US7605172B2, “Thiazolo-naphthyl acids” (Wyeth, priority 2004, dated 2009):
# Key:
# [1] = target: T1, recombinant human plasminogen activator inhibitor-1 (PAI-1) (Homo sapiens, UniProt P05121); assay: Primary screen for the PAI-1 inhibition; format: biochemical; conditions: for inhibition at 10 µM: 10 μM test compound; for inhibition at 25 µM: 25 μM test compound
# T1 construct: purchased Molecular Innovations, Royal Oak, Mich
# Procedure: Test compounds are dissolved in DMSO at a final concentration of 10 mM, then diluted 100× in physiologic buffer. The inhibitory assay is initiated by the addition of the test compound (1-100 μM final concentration, maximun DMSO concentration of 0.2%) in a pH 6.6 buffer containing 140 nM recombinant human plasminogen activator inhibitor-1 (PAI-1; Molecular Innovations, Royal Oak, Mich.). Following a 1 hour incubation at room temperature, 70 nM of recombinant human tissue plasminogen activator (tPA) is added, and the combination of the test compound, PAI-1 and tPA is incubated for an additional 30 minutes. Following the second incubation, Spectrozyme-tPA (American Diagnostica, Greenwich, Conn.), a chromogenic substrate for tPA, is added and absorbance read at 405 nm at 0 and 60 minutes. Relative PAI-1 inhibition is equal to the residual tPA activity in the presence of the test compound and PAI-1. Control treatments include the complete inhibition of tPA by PAI-1 at the molar ratio employed (2:1), and the absence of any effect of the test compound on tPA alone.
# human PAI-1 = human PAI-1 (Homo sapiens, UniProt P05121); assay: Assay for determining IC50 of inhibition of PAI-1 (Antibody Assay); format: binding; conditions: active PAI-1 bound to tPA-coated plate
# Procedure: This assay is based upon the non-SDS dissociable interaction between tPA and active PAI-1. Assay plates are initially coated with human tPA (10 μg/ml). Test compounds of the present invention are dissolved in DMSO at 10 mM, then diluted with physiologic buffer (pH 7.5) to a final concentration of 1-50 μM. Test compounds are incubated with human PAI-1 (50 ng/ml) for 15 minutes at room temperature. The tPA-coated plate is washed with a solution of 0.05% Tween 20 and 0.1% BSA, then the plate is blocked with a solution of 3% BSA. An aliquot of the thiazolo-naphthyl acid/PAI-1 solution is then added to the tPA-coated plate, incubated at room temperature for 1 hour, and washed. Active PAI-1 bound to the plate is assessed by adding an aliquot of a 1:1000 dilution of the 33B8 monoclonal antibody against human PAI-1, and incubating the plate at room temperature for 1 hour (Molecular Innovations, Royal Oak, Mich.). The plate is again washed, and a solution of goat anti-mouse IgG-alkaline phosphatase conjugate is added at a 1:50,000 dilution in goat serum. The plate is incubated 30 minutes at room temperature, washed, and a solution of alkaline phosphatase substrate is added. The plate is incubated 45 minutes at room temperature, and color development is determined at OD405 nm. The quantitation of active PAI-1 bound to tPA at varying concentrations of the test compound is used to determine the IC50. Results are analyzed using a logarithmic best-fit equation. The assay sensitivity is 5 ng/ml of human PAI-1 as determined from a standard curve ranging from 0-100 ng/ml.
# Chain of human PAI-1 (P05121 24-402): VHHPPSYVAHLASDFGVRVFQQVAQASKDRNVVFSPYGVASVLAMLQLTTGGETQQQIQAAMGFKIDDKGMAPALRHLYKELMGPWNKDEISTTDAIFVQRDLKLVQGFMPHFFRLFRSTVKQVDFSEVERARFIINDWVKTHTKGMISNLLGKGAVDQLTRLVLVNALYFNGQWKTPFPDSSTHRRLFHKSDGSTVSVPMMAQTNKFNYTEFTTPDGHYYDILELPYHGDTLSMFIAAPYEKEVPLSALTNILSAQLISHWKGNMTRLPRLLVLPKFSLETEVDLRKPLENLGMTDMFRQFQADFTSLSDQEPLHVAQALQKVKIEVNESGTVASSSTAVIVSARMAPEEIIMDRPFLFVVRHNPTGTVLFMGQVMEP
# T1 sequence (P05121 24-402): as above
Compound,inhibition at 10 µM [1],inhibition at 25 µM [1],melting point,IC50 (human PAI-1)
"O=C(O)C(Cc1ccccc1)Oc1ccc2cc(-c3nc(-c4ccccc4)sc3Br)ccc2c1Br (stereo not drawn) [Example 7, 2-{[1-bromo-6-(5-bromo-2-phenyl-1,3-thiazol-4-yl)-2-naphthyl]oxy}-3-phenylpropanoic acid]",20%,71%,221 to 223 °C,–
"O=C(O)C(Cc1ccccc1)Oc1ccc2cc(-c3csc(-c4ccccc4)n3)ccc2c1Br (stereo not drawn) [Example 3, 2-{[1-bromo-6-(2-phenyl-1,3-thiazol-4-yl)-2-naphthyl]oxy}-3-phenylpropanoic acid]",1%,49%,220 to 224 °C,–
"c1ccc(-c2nc(-c3ccc4cc(OCc5nnn[nH]5)ccc4c3)cs2)cc1 [Example 2, 5-({[6-(2-phenyl-1,3-thiazol-4-yl)-2-naphthyl]oxy}methyl)-1H-tetraazole]",6%,59%,226 to 228 °C,34.3 µM
"Brc1c(OCc2nnn[nH]2)ccc2cc(-c3csc(-c4ccccc4)n3)ccc12 [Example 5, 5-({[1-bromo-6-(2-phenyl-1,3-thiazol-4-yl)-2-naphthyl]oxy}methyl)-1H-tetraazole]",42%,64%,227 to 231 °C,–
"O=C(O)C(Cc1ccccc1)Oc1ccc2cc(-c3csc(-c4ccccc4)n3)ccc2c1 (stereo not drawn) [Example 1, 3-phenyl-2-{[6-(2-phenyl-1,3-thiazol-4-yl)-2-naphthyl]oxy}propanoic acid]",4%,62%,154 to 160 °C,26.2 µM
"O=C(O)COc1ccc2cc(-c3csc(Cc4c(Cl)cccc4Cl)n3)ccc2c1 [Example 6, ({6-[2-(2,6-dichlorobenzyl)-1,3-thiazol-4-yl]-2-naphthyl}oxy)acetic acid]",21%,43%,205 to 207 °C,–

# More lines, now with the values ahead:
inhibition at 10 µM [1],inhibition at 25 µM [1],melting point,IC50 (human PAI-1),Compound
38%,49%,–,–,"O=C(O)c1ccc(COc2ccc3cc(-c4csc(-c5ccccc5)n4)ccc3c2Br)cc1 [Example 8, 4-({[1-bromo-6-(2-phenyl-1,3-thiazol-4-yl)-2-naphthyl]oxy}methyl)benzoic acid]"
40%,68%,222 to 230 °C,20.3 µM,"O=C(O)COc1ccc2cc(-c3csc(-c4ccccc4)n3)ccc2c1Br [Example 4, {[1-bromo-6-(2-phenyl-1,3-thiazol-4-yl)-2-naphthyl]oxy}acetic acid]"
–,–,268 to 270 °C,–,"O=C(O)c1ccc(COc2ccc3cc(-c4csc(-c5ccccc5)n4)ccc3c2Br)cc1 (hydrate or solvate) [Example 8, 4-({[1-bromo-6-(2-phenyl-1,3-thiazol-4-yl)-2-naphthyl]oxy}methyl)benzoic acid]"
